Assay: Solubility of mitiglinide calcium hydrate (water, pH dependence)
Assay type: physicochemical
Source text: The inventors of the present invention conducted studies on orally disintegrating tablets containing mitiglinide calcium hydrate. […] Because the orally disintegrating tablets are designed to quickly disintegrate in the mouth, the influence of bitterness becomes a big factor when the active ingredient has a bitter taste. […] Under these circumstances, the inventors of the present invention conducted studies to provide a mitiglinide calcium hydrate-containing orally disintegrating tablet having reduced bitterness and capable of rapidly dissolving in the digestive tract.
As mentioned above, the mitiglinide calcium hydrate-containing preparation is administered immediately before meal, and preferably, rapidly dissolves upon administration to improve postprandial hyperglycemia. It is therefore desirable in an orally disintegrating tablet of the present invention that the tablet rapidly dissolves in the digestive tract, particularly in the stomach, after having disintegrated in the mouth. […] It is therefore preferable that an orally disintegrating tablet of the present invention rapidly dissolve in the stomach and water.

Solubility in water (water): does not easily dissolve in water
Compound: O=C(O)[C@H](CC(=O)N1C[C@H]2CCCC[C@H]2C1)Cc1ccccc1 [mitiglinide calcium hydrate, (+)-Monocalcium bis[(2S,3a,7a-cis)-α-benzylhexahydro-γ-oxo-2-isoindolinebutyrate]dihydrate]
pH-dependent solubility (alkaline versus neutral to acidic pH): soluble in an alkaline pH range, and insoluble toward the neutral to acidic pH
